Data as given in patent US5272152A, “Purinyl and pyrimidinyl tetrahydrofurans” (priority 1991, dated 1993).
In brackets after ≈: the same amount, converted by molar mass. Like-named read-outs stand apart in the source and are kept apart here.

How the values were obtained:
VZV = VZV antiviral assay: plaque reduction in WI-38 cell culture monolayers; format: cell-based, varicella zoster virus, strain ELLEN; conditions: Human alphaherpesvirus 3, 156 h; WI-38 cells; at least 50% plaque reduction vs virus controls; 6-7 days at 37° C.; read-out: ID50 VZV
Protocol: (§1) Assays were performed in cell culture systems to determine the concentrations of compounds that are effective in preventing several kinds of viral infections.
(§2) HSV-1 (herpes simplex virus type 1, strain Schooler), HSV-2 (herpes simplex virus type 2, strain 186), VZV (varicella zoster virus, strain ELLEN).
(§3) HSV-1, HSV-2, and VZV antiviral assays: Virus was adsorbed to WI-38 cell culture monolayers in 6 well culture plates (Costar, Cambridge, Mass.) for 1 hour prior to addition of maintenance medium containing duplicate dilutions of the test compound. Inhibition of plaque development was evaluated on fixed and stained monolayers after 4 days incubation at 37° C. for HSV-1 and HSV-2 and after 6-7 days incubation at 37° C. for VZV. ID50 values were determined from the drug concentration which conferred at least a 50% plaque reduction compared to virus controls (Table 1).

HSV-2 = HSV-2 antiviral assay: plaque reduction in WI-38 cell culture monolayers; format: cell-based, herpes simplex virus type 2, strain 186; conditions: read-out: ID50 HSV-2
Protocol: as §1, §2, §3

HSV-1 = HSV-1 antiviral assay: plaque reduction in WI-38 cell culture monolayers; format: cell-based, herpes simplex virus type 1, strain Schooler; conditions: read-out: ID50 HSV-1
Protocol: as §1, §2, §3

[1] = Human alphaherpesvirus 2, 96 h, WI-38 cells, at least 50% plaque reduction vs virus controls, 4 days at 37° C.
[2] = Human alphaherpesvirus 1, 96 h, WI-38 cells, at least 50% plaque reduction vs virus controls, 4 days at 37° C.

Compound | IC50 (VZV) [µg/mL] | IC50 (HSV-2; Human alphaherpesvirus 2, WI-38, 96 h) [µg/mL] | IC50 (HSV-1; Human alphaherpesvirus 1, WI-38, 96 h) [µg/mL] | IC50 (HSV-2; [1]) [µg/mL] | IC50 (HSV-1; [2]) [µg/mL]
Nc1ccn([C@@H]2CO[C@H](CO)[C@H]2O)c(=O)n1 [[3R-(3α,4β,5α)]-4-Amino-1-[tetrahydro-4-hydroxy-5-(hydroxymethyl)-3-furanyl]-2(1H)-pyrimidinone] | 25 to 50 (≈ 110 to 220 µM) | > 100 | > 100 |  | 
Cc1cn([C@@H]2CO[C@H](CO)[C@H]2O)c(=O)[nH]c1=O [[3R-(3α,4β,5α)]-5-Methyl-1-[tetrahydro-4-hydroxy-5-(hydroxymethyl)-3-furanyl]2,4(1H,3H)pyrimidinedione] | > 100 |  |  | > 100 | 10 (≈ 41.3 µM)
Nc1nc2c(ncn2[C@@H]2CO[C@H](CO)[C@H]2O)c(=O)[nH]1 | 50 to 100 (≈ 187 to 374 µM) |  |  | 2 (≈ 7.48 µM) | 2 to 5 (≈ 7.48 to 18.7 µM)
